This is an account of results in patent publication US20090275546A1, “Diagnostic tests and personalized treatment regimes for cancer stem cells” (Istituto Superiore di Sanita, priority 2008, published 2009).

“Also recorded” adds a separate entry of the source. Where two headings read alike, the source gives them in different places.

Test [1] has as its system colon CSCs. The experiment in a line: kinase inhibitor library screening, ATP-based viability assay. The test is classed as cell-based, human. Here is the method: A flowchart showing the steps of the screenings performed on colon CSCs, is depicted in FIG. 5. Before treatment with inhibitors, colon CSCs undergo trypsin/EDTA dissociation in order to be consistently plated into 96-well microtiter plates. After 48 h cells recover from dissociation and form spheroids again. Inhibitors are subsequently added to the cells as single agents while ATP-based-viability assay are performed after another 48 h.
Viability controls are cells treated with DMSO whereas staurosporin-treated cells are positive controls of death.
(§1) Cells were incubated at 37° C. for a variable time, depending on the size and on the sensitivity of each colon CSC line, until single cell suspension was achieved. Cells were then washed once in fresh medium and plated into 96-well microtiter plates in 80 μL volume. The number of cells plated ranged from 2000 to 5000 per well. Drugs were added after 48 h by dispensing each well with 20 μL of medium containing 5× concentrated compounds. We purchased the kinase inhibitor library from Enzo Life Sciences International, Inc (formerly BIOMOL International, L.P., PA, USA) and used each single inhibitor at a final […] concentration. As a control DMSO was added to cells at a final concentration of 0.1% (v/v).
Measure of cell viability was performed using CelltiterGlo® luminescent assay (Promega Corporation, Madison, Wis., USA) and luminescence was recorded on Beckman Coulter DTX880 multimode reader (Beckman Coulter Inc., Fullerton, Calif., USA) with an integration time of 100 ms.
Statistical analysis and IC50 calculations were performed with the aid of Microsoft Excel (Microsoft Corporation, www.microsoft.com) and GraphPad Prism version 4.00 for Windows, (GraphPad Software, San Diego, Calif., www.graphpad.com) while hierarchical clustering was performed with TMev v4.3.01 [10]. Normalized viability represents the signal intensity of each replicate divided by the average of single plate DMSO controls (in percent). Dunnett's post-test was performed on at least three independent experiments for each colon CSC line to calculate statistical significance versus DMSO controls. P values were subsequently clustered by using Euclidean distance as metric and complete linkage as a linkage method.

The target of test [2] is casein kinase I and PKA, insulin receptor kinase fragment. Particulars: range over casein kinase I; cited from earlier work.
The subject of test [3] is CTSC#85 (TRAIL-resistant colon CSC line). Description: drug combination experiment. The test is classed as cell-based, human. Conditions: 24 h, TRAIL IC50/17-AAG IC50. Here is the method: Normalized viability at 24 h is plotted against drug combinations. […] Recombinant human Killer TRAIL was purchased from Alexis (San Diego, Calif., USA) while Geldanamycin, 17-AAG and 17-DMAG were purchased from Calbiochem (Nottingham, UK). All agents were diluted into fresh medium at the specified concentrations. Measure of cell viability was performed using CelltiterGlo® luminescent assay (Promega Corporation, Madison, Wis., USA) and luminescence was recorded on Beckman Coulter DTX880 multimode reader (Beckman Coulter Inc., Fullerton, Calif., USA) with an integration time of 100 ms.

Another test concerns colon cancer cell lines. Particulars: commercial (non-stem) cell lines, colon and lung; cited from earlier work.
Another test has as its system CTSC#85. Description: dose-response analysis, viability (CelltiterGlo). The test is classed as cell-based, human. Conditions: escalating doses.
The target in test [4] is platelet-derived growth factor receptor tyrosine kinase (Homo sapiens, UniProt P09619). Particulars: cited from earlier work.
Chain of platelet-derived growth factor receptor tyrosine kinase (P09619 33-1106): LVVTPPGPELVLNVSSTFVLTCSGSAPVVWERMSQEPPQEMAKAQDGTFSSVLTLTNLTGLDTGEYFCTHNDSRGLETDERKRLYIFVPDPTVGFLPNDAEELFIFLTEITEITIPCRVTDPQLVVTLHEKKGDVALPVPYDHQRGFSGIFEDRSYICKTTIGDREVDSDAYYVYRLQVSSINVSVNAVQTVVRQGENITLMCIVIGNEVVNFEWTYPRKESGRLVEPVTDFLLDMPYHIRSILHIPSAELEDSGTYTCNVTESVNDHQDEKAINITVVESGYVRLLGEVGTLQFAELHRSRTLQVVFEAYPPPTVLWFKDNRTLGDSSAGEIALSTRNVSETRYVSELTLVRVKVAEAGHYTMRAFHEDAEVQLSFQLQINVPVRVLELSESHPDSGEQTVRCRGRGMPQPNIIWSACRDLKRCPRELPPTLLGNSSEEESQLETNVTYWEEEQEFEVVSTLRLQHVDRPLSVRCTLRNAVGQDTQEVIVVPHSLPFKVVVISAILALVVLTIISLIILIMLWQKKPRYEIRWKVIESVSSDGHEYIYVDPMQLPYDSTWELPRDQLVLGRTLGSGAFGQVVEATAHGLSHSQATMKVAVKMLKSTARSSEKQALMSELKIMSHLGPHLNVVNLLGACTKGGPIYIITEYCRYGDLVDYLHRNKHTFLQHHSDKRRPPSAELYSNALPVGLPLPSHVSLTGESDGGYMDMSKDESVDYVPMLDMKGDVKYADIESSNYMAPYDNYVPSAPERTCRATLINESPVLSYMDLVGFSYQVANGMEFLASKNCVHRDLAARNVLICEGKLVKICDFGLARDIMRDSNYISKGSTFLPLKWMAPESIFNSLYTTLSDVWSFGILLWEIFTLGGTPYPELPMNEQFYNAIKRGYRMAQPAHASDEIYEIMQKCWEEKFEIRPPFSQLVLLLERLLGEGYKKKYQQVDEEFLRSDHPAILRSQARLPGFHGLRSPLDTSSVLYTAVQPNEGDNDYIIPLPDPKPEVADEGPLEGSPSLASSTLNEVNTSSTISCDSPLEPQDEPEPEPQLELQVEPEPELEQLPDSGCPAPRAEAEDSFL
The next test concerns the target human PDGF a-receptors (Homo sapiens, UniProt P16234). Conditions: cited from earlier work.
The next test concerns the target human PDGF b-receptors (Homo sapiens, UniProt P09619). Conditions: cited from earlier work.
Another test deals with c-kit (Homo sapiens, UniProt P10721). Particulars: at 5 μM; cited from earlier work.
For test [5], the system named is TNF-a-inducible phosphorylation of IkBa. Particulars: cited from earlier work.
For another test, the target named is protein kinase G. Particulars: cited from earlier work.
For test [6], the target named is myosin light chain kinase. Particulars: cited from earlier work.
The next test deals with rat brain CaM kinase II. Conditions: cited from earlier work.
A further test concerns the target CaM kinase II. Conditions: cited from earlier work.
For a further test, the target named is protein kinase A (Homo sapiens, UniProt P17612). Particulars: cited from earlier work.
The target of the next test is protein kinase C (PKC). Particulars: cited from earlier work.
The subject of test [7] is GSK-3 in primary adipocytes. Particulars: cited from earlier work.
Test [8] addresses T1, GSK-3b immunoprecipitates (Homo sapiens, UniProt P49841).
T1 construct: host or cells: immunoprecipitates
Particulars: cited from earlier work.

Another test addresses PKCd (Homo sapiens, UniProt Q05655). Particulars: cited from earlier work.
Test [9] deals with PKCa, PKCb, and PKCg isoforms. Conditions: cited from earlier work.
The next test addresses CaM kinase III (Homo sapiens, UniProt O00418). Conditions: cited from earlier work.
A further test has as its system PKCe, PKCh, and PKCz. Particulars: reduced inhibitory activity; cited from earlier work.
Another test has as its target c-Raf (Homo sapiens, UniProt P04049). Conditions: selectivity c-Raf over B-Raf; cited from earlier work.
Test [10] relates to many other protein kinases. Particulars: even at 50 μM; cited from earlier work.
The target in another test is SAPK2a/p38a (Homo sapiens, UniProt Q16539). Particulars: cited from earlier work.
Chain of SAPK2a/p38a (Q16539 whole entry): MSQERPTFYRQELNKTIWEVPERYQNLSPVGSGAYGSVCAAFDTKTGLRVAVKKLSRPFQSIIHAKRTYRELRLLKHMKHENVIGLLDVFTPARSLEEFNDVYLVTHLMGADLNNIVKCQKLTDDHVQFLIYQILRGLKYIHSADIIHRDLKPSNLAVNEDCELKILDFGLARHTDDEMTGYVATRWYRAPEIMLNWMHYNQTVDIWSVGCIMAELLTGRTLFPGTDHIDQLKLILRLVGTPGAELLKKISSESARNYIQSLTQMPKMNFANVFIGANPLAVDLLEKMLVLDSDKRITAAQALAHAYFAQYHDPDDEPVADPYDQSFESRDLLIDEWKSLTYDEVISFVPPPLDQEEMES
For the next test, the target named is SAPK2b/p38b2 (Homo sapiens, UniProt Q15759). Particulars: cited from earlier work.
Chain of SAPK2b/p38b2 (Q15759 whole entry): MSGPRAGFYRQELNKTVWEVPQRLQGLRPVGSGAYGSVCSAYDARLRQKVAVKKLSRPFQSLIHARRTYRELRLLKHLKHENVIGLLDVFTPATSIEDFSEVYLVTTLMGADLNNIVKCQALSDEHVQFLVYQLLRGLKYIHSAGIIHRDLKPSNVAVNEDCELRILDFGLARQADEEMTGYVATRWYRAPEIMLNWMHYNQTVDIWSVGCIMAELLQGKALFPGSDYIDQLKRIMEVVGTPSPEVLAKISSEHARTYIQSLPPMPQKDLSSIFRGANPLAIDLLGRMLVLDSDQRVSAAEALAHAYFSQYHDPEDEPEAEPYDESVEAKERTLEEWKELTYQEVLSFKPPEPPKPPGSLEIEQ
The next test concerns the target Cdk5 (Homo sapiens, UniProt Q00535). Particulars: cited from earlier work.
For test [11], the system named is colon CSCs. Description: dose-response analysis on four colon CSCs. The test is classed as cell-based, human. Particulars: single agent, escalating doses, four colon CSC lines. Here is the method: as §1, with “(v/v). Recombinant human Killer TRAIL was purchased from Alexis (San Diego, Calif., USA) while Geldanamycin, 17-AAG and 17-DMAG were purchased from Calbiochem (Nottingham, UK). All agents were diluted into fresh medium at the specified concentrations. Measure of cell viability was performed using CelltiterGlo® luminescent assay (Promega Corporation, Madison, Wis., USA) and luminescence was recorded on Beckman Coulter DTX880 multimode reader (Beckman Coulter Inc., Fullerton, Calif., USA) with an integration time of 100 ms.” for “(v/v).”

Setting [12] is: single agent, 5 μM, viability after 48 h, four colon CSC lines.

Chain of human PDGF a-receptors (P16234 24-1089): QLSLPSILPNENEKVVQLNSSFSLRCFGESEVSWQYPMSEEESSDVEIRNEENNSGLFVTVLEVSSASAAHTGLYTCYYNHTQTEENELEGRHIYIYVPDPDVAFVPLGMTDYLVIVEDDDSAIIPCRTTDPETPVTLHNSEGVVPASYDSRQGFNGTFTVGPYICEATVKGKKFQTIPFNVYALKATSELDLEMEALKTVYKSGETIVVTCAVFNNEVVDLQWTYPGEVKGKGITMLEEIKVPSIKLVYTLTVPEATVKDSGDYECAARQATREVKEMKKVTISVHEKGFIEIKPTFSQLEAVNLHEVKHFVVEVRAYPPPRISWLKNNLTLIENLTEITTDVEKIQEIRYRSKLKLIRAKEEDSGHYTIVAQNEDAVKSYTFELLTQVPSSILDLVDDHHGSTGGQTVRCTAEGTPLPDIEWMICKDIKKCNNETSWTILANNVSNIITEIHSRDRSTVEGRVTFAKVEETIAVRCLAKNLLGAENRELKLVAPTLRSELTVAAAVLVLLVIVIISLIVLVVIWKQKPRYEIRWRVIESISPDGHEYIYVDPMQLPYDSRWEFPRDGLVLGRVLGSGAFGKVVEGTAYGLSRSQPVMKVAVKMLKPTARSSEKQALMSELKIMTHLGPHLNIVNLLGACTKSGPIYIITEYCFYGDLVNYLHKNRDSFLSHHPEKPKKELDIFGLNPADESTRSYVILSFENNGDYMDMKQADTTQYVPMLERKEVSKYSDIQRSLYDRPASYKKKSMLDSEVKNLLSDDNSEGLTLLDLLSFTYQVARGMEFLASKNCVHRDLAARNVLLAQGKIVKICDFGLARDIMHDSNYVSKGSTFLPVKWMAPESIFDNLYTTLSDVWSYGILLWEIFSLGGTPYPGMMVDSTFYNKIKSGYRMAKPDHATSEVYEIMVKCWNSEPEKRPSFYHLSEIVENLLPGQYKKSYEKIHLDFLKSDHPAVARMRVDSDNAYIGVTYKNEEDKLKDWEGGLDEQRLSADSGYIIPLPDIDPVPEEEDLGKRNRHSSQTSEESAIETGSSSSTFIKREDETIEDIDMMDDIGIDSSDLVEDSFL
Chain of Cdk5 (Q00535 whole entry, species assumed): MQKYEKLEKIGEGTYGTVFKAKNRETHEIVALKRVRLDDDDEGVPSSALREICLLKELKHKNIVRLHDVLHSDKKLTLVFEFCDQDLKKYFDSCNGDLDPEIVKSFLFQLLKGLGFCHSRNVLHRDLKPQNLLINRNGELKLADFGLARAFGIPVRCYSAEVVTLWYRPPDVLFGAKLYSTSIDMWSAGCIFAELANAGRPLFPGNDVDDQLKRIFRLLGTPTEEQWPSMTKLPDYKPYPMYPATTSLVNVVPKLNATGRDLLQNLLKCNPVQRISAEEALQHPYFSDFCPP
Chain of Cdk5 (Q15078 99-307 partner limits assumed, species assumed): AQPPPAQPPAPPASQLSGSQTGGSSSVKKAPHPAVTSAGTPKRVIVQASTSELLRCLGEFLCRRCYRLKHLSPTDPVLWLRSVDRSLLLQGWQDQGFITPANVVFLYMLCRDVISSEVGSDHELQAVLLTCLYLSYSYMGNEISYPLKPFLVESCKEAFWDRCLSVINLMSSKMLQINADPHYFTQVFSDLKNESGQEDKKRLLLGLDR
Chain of human PDGF b-receptors (P09619 33-1106): as the sequence (P09619 33-1106) above
Chain of c-Raf (P04049 whole entry): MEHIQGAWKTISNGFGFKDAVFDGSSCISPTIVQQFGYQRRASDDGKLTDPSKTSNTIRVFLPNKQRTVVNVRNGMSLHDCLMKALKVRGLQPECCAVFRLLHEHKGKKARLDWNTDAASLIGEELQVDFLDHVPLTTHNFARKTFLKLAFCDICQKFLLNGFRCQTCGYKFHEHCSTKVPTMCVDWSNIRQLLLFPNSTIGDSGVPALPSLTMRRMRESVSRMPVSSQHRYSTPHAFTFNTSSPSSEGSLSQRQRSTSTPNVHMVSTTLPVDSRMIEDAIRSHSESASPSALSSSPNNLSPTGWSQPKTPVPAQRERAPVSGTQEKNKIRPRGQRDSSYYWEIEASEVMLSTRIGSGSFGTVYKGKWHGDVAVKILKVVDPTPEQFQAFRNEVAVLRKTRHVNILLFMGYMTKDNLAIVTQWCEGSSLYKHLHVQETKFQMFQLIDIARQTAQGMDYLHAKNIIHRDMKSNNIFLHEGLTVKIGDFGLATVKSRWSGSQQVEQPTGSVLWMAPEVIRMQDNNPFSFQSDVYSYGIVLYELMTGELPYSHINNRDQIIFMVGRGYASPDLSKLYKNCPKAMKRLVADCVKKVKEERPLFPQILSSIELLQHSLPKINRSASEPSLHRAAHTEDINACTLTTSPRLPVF
Chain of PKCd (Q05655 whole entry, species assumed, canonical isoform): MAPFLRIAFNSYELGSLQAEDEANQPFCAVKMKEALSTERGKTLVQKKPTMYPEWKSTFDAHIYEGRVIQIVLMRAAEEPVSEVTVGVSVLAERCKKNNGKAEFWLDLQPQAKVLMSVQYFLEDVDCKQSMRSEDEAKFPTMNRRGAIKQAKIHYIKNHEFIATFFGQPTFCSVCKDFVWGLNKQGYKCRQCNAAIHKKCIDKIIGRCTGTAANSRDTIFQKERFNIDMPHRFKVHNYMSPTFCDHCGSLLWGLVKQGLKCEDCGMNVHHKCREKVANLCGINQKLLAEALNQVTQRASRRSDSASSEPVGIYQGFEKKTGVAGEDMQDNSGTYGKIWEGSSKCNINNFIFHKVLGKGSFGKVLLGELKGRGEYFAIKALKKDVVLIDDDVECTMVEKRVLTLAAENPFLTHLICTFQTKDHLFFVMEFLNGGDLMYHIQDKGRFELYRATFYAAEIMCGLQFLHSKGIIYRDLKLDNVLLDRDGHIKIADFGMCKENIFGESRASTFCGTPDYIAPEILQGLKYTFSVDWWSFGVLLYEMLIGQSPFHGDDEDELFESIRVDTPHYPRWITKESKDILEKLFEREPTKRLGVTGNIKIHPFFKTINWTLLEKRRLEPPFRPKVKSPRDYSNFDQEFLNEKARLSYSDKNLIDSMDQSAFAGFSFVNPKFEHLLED

Take `Nc1ncnc2c1c(I)cn2[C@@H]1O[C@H](CO)[C@@H](O)[C@H]1O` [5-Iodotubercidin]: the “effect on colon CSC proliferation / number versus DMSO controls” value with colon CSCs [1] (setting [12]) is listed as “significantly lead to a reduction in colon CSC numbers”. Further, the IC50 (usually the concentration that gives 50% inhibition) in test [2] is 400 to 28000 nM.
For `C=CCNC1=C2C[C@@H](C)C[C@H](OC)[C@H](O)[C@@H](C)/C=C(\C)[C@H](OC(N)=O)[C@@H](OC)/C=C\C=C(/C)C(=O)NC(=CC1=O)C2=O` [17-AAG, 17-Allylamino-17-demethoxygeldanamycin], in test [3], the “effect of combination with TRAIL on normalized viability” value is “synergistic effect; also recorded: rapidly (24 h) sensitized to TRAIL treatment”. Further, the “sensitization of tumor cell lines to TRAIL” value with colon cancer cell lines is “sensitizes colon cancer cell lines; also recorded: TRAIL resistance can be overcome”.
With `CO[C@H]1/C=C\C=C(/C)C(=O)NC2=CC(=O)C(NCCN(C)C)=C(C[C@@H](C)C[C@H](OC)[C@H](O)[C@@H](C)/C=C(\C)[C@@H]1OC(N)=O)C2=O` [17-DMAG, 17-dimethylaminoethylamino-17-demethoxy-geldanamycin], the “sensitivity of the TRAIL-resistant colon CSC line to single agent” value in the test with CTSC#85 is listed as “sensitive”.
With `CC(C)(C)c1cc(C=C(C#N)C#N)cc(C(C)(C)C)c1O` [AG 17], in the test on colon CSCs [1] (setting [12]), the “effect on colon CSC proliferation / number versus DMSO controls” value is given as “significantly lead to a reduction in colon CSC numbers”. Besides, the IC50 in test [4] was 500 nM.
`COc1cc2ncc(-c3ccccc3)nc2cc1OC` [AG 1296]: the IC50 at human PDGF a-receptors was 1000 nM; on human PDGF b-receptors, 800 nM. Moreover, the inhibition entry on c-kit is listed as “c-kit (80% inhibition at 5 μM)”.
In the case of `Cc1ccc(S(=O)(=O)/C=C/C#N)cc1` [BAY 11-7082], in test [5], the half-maximal inhibitory concentration (IC50) is 10000 nM.
Turning to `O=S(=O)(c1cccc2cnccc12)N1CCCNCC1` [HA-1077], in the test with colon CSCs [1] (setting [12]), the “effect on colon CSC proliferation / number versus DMSO controls” value is recorded as “lead to significant proliferation”. Besides, the figures for the inhibition constant Ki (on protein kinase G; in test [6]) were 1600 nM and 36000 nM, respectively.
Consider `CN([C@@H](Cc1ccc(OS(=O)(=O)c2cccc3cnccc23)cc1)C(=O)N1CCN(c2ccccc2)CC1)S(=O)(=O)c1cccc2cnccc12` [KN-62], for which the Ki – broadly, the equilibrium dissociation constant of an inhibitor or competing ligand from its target – on rat brain CaM kinase II was 900 nM.
For `COc1ccc(S(=O)(=O)N(CCO)c2ccccc2CN(C)C/C=C/c2ccc(Cl)cc2)cc1` [KN-93], the Ki at CaM kinase II is 370 nM.
With `Cn1cc(C2=C(c3cn(CCCSC(=N)N)c4ccccc34)C(=O)NC2=O)c2ccccc21` [Ro-31-8220], the “effect on colon CSC proliferation / number versus DMSO controls” value with colon CSCs [1] (setting [12]) was “significantly lead to a reduction in colon CSC numbers”. Also, the IC50 at protein kinase A is 900 nM; at CaM kinase II, 17000 nM; at protein kinase C (PKC), 10 nM; in test [7], 6.8 nM; in [8], 2.8 nM.
For the molecule `CC(=O)c1c(O)c(C)c(O)c(Cc2c(O)c3c(c(C(=O)/C=C/c4ccccc4)c2O)OC(C)(C)C=C3)c1O` [Rottlerin], in the test with colon CSCs [1] (setting [12]), the “effect on colon CSC proliferation / number versus DMSO controls” value is listed as “significantly lead to a reduction in colon CSC numbers”. Besides, at PKCd, the IC50 is 3000 to 6000 nM.
Turning to `Oc1ccc(-c2nc(-c3ccncc3)c(-c3ccc(F)cc3)[nH]2)cc1` [SB 202190], the “effect on colon CSC proliferation / number versus DMSO controls” value in the test with colon CSCs [1] (setting [12]) is reported as “lead to significant proliferation”. The half-inhibitory concentration (IC50) in test [9] is 30000 to 42000 nM; on CaM kinase III, 5300 nM; in the test on PKCe, PKCh, and PKCz it was 80000 to 100000 nM.
For `Cc1ccc(NC(=O)c2cccc(N(C)C)c2)cc1NC(=O)c1ccc(O)cc1` [ZM 336372], the “effect on colon CSC proliferation / number versus DMSO controls” value in the test with colon CSCs [1] was “lead to significant proliferation”. Also, the “increased potency on c-Raf compared to B-Raf” value on c-Raf is reported as “ten-fold”. In addition, the “inhibition of many other protein kinases” value in test [10] is reported as “potency compared to B-Raf, but does not inhibit many other”. The IC50 on SAPK2a/p38a and at SAPK2b/p38b2 was 2000 nM throughout.
For the molecule Indirubin-3′-monoxime, the 50% inhibitory concentration (IC50) on Cdk5 was 100 nM.

B1: TRAIL: Tumor necrosis factor-related apoptosis-inducing ligand; recombinant human Killer TRAIL from Alexis (protein, UniProt P50591 1-281, looked up)
Tumor necrosis factor ligand …: MAMMEVQGGPSLGQTCVLIVIFTVLLQSLCVAVTYVYFTNELKQMQDKYSKSGIACFLKEDDSYWDPNDEESMNSPCWQVKWQLRQLVRKMILRTSEETISTVQEKQQNISPLVRERGPQRVAAHITGTRGRSNTLSSPNSKNEKALGRKINSWESSRSGHSFLSNLHLRNGELVIHEKGFYYIYSQTYFRFQEEIKENTKNDKQMVQYIYKYTSYPDPILLMKSARNSCWSKDAEYGLYSIYQGGIFELKENDRIFVSVTNEHLIDMDHEASFFGAFLVG
In the case of B1, the “resistance of colon CSCs to treatment alone” value with colon CSCs [11] is on record as “One out of four colon CSCs is resistant”.
